A short description of series [1]: Metabolic stability in human liver microsomes (HLM). The class given is in vitro ADME. The settings on record: for t1/2: 1 μM, 0.50 mg protein per mL; for microsomal CLint at 1 μM: both sexes, human, pooled human liver microsomes, pH 7.4, 0.50 mg protein per mL. The source says: HLM Stability. Pooled HLM from adult male and female donors (Corning 452117) were used.
Background: Liver microsomes are a subcellular fraction often used to study metabolism.

The target of series [2] is T1, 5-HT2A receptor (Homo sapiens, UniProt P28223).
T1 construct: host or cells: HEK293
T1 sequence (P28223 whole entry): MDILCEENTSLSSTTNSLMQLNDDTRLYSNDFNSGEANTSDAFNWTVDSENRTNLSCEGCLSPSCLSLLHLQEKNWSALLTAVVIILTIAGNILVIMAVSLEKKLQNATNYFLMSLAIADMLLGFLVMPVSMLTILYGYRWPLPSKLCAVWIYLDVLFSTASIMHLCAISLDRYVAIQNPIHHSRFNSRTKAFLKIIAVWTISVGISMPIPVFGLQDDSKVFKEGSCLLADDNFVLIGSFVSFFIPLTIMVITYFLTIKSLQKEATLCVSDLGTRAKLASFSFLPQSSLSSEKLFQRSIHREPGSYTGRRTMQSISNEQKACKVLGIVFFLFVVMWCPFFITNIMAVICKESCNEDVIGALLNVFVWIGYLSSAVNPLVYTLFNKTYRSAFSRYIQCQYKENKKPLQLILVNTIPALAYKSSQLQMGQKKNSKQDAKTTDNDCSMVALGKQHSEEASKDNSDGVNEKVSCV
Briefly: cell-based. The note with it: Ca^2+ flux, agonist; read-out: 5-HT2A EC50. The class given is cell-based.

The target of another series is T2, Alpha1A receptor (Homo sapiens, UniProt P35348).
T2 sequence (P35348 1-466): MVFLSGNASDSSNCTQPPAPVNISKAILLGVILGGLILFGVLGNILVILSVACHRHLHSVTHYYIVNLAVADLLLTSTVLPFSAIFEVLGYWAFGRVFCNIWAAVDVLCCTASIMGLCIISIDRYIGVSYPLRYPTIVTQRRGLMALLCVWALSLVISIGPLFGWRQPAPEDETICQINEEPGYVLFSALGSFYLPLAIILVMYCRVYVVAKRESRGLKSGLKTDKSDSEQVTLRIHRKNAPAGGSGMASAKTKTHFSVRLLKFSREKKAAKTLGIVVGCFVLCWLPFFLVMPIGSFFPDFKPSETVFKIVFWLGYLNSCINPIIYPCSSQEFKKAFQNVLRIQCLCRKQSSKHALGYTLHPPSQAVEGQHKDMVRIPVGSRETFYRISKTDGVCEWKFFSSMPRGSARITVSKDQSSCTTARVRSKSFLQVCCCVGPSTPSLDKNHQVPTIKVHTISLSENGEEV
As to the kind of experiment: FLIPR Ca^2+ flux agonist assay at Alpha1A. It counts as cell-based. How it is done:
Disclosed compounds were tested for agonist activity at several adrenergic (Alpha1A and Alpha2A) and dopamine (D1 and D2) receptor subtypes using Ca^2+ flux functional assays, with the results summarized in Table 6. Selectivity for the 5-HT2A receptor over these other targets varied depending on the specific target and compound.
(§1) Functional Assays at Adrenergic and Dopamine Receptors. Agonist activity at Alpha1A, Alpha2A, D1, and D2 receptors was determined using a FLIPR Ca^2+ flux assay at WuXi AppTec (Hong Kong) Limited according to their standard protocols. Briefly, stably transfected cells expressing the receptor of interest were grown and plated in a 384 well plate and incubated at 37° C. and 5% CO2 overnight. A solution of 250 mM probenecid in 1 mL FLIPR assay buffer was prepared fresh. This was combined with a fluorescent dye (Fluo-4 Direct™) to make a final assay concentration of 2.5 mM. Compounds were diluted 1:3.16 for 10 points and 750 nL was added to a 384 well compound plate using ECHO along with 30 μL assay buffer. The fluorescent dye was then added to the assay plate along with assay buffer to a final volume of 40 μL. The cell plate was incubated for 50 min at 37° C. and 5% CO2 and placed into the FLIPR Tetra along with the compound plate. 10 μL of references and compounds were then transferred from the compound plate into the cell plate and the fluorescent signal was read.

The target in the next series is 5-HT1B receptor (Homo sapiens, UniProt P28222). Briefly: cAMP accumulation agonist assay at 5-HT1B. The class given is cell-based. The note with it: cAMP, agonist; read-out: 5-HT1B EC50. Summed up: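 Agonism was measured by cAMP accumulation in stably transfected cells incubated 60 min at RT. A detection reagent was then added for 60 min at RT before reading, with an 800 nM cAMP standard in blank wells.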
Sequence of 5-HT1B receptor (P28222 whole entry): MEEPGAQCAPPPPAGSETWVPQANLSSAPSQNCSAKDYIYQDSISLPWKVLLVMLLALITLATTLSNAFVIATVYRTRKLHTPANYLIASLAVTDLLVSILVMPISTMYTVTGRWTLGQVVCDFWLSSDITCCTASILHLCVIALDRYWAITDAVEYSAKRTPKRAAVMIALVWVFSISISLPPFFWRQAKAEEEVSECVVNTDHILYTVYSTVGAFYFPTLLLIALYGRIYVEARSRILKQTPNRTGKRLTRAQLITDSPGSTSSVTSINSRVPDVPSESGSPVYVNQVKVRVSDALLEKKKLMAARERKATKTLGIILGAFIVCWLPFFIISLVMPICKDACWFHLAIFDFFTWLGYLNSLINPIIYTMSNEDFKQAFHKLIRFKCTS
For orientation: Changes in cAMP serve as a functional read-out for many G protein-coupled receptors.

Series [3] addresses T1, 5-HT2A receptor. As to the kind of experiment: biochemical. It counts as binding. The settings on record: 1 nM [^3H]ketanserin, HEK293 stable cell line; read-out: 5-HT2A Receptor Ki (nM) ([^3H]ketanserin). In a few lines: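 Affinity was measured in radioligand binding experiments using [^3H]ketanserin as the labelled ligand, following methods adapted from published procedures.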

A further series has as its target T3, 5-HT2B receptor (Homo sapiens, UniProt P41595).
T3 construct: host or cells: HEK293
As to the kind of experiment: cell-based. The note with it: Ca^2+ flux, agonist; read-out: 5-HT2B EC50.

The target of another series is T4, 5-HT1A receptor (Homo sapiens, UniProt P08908).
T4 construct: host or cells: CHO cells
T4 sequence (P08908 1-422): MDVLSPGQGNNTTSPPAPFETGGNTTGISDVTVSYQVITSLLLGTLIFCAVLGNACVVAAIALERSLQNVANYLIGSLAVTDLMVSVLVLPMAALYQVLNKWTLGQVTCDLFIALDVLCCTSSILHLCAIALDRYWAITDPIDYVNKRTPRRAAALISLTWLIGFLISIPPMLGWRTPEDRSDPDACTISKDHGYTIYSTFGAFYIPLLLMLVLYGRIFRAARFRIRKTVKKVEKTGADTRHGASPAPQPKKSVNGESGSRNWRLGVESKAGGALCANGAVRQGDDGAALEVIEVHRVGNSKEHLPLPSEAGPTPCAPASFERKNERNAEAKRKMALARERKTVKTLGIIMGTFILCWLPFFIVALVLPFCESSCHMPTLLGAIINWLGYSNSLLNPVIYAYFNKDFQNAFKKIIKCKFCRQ
As to the kind of experiment: cell-based. The note with it: Ca^2+ flux, agonist; read-out: 5-HT1A EC50.

Series [4] is described as follows: Metabolic stability in rat liver microsomes (RLM). The settings on record: for t1/2: RLM, 0.50 mg protein per mL; for microsomal CLint at 1 μM: both, rat, pooled rat liver microsomes, pH 7.4.
The nature of series [5]: Metabolic stability in mouse liver microsomes (MLM). It counts as in vitro ADME. The note with it: 0.50 mg protein per mL; for t1/2: MLM (CD-1), 1 μM; for microsomal CLint at 1 μM: mouse, pooled mouse liver microsomes, pH 7.4, MLM (CD-1). The source says: MLM Stability Pooled MLM from CD-1 mice (BIOIVT M00501) were used.
In another series the target is D1 receptor (Homo sapiens, UniProt P21728). As to the kind of experiment: FLIPR Ca^2+ flux agonist assay at D1. It counts as cell-based. The procedure:
as §1, with “Compounds were diluted 1:3.16 for 10 points and 750 nL was added to a 384 well compound plate using ECHO along with 30 μL assay buffer.” left out

The target in series [6] is T1, 5-HT2A receptor. As to the kind of experiment: PathHunter beta-arrestin recruitment assay at 5-HT2A. The settings on record: 5-HT2A beta-arrestin. It counts as cell-based. In a few lines:
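Cells co-express PK-tagged 5-HT2A and beta-arrestin fused to a beta-galactosidase deletion mutant, so arrestin recruitment restores enzyme activity, read by chemiluminescence; cells were held at 37° C before testing. Agonist % activity = RLU over vehicle, relative to the maximal control ligand.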
For orientation: Arrestin recruitment assays detect the binding of arrestin to an activated receptor.

Another series concerns the target D2 receptor (Homo sapiens, UniProt P14416). As to the kind of experiment: FLIPR Ca^2+ flux agonist assay at D2. It counts as cell-based. How it is done: as §1, with “Compounds were diluted 1:3.16 for 10 points and 750 nL was added to a 384 well compound plate using ECHO along with 30 μL assay buffer.” left out

T3 sequence (P41595 whole entry): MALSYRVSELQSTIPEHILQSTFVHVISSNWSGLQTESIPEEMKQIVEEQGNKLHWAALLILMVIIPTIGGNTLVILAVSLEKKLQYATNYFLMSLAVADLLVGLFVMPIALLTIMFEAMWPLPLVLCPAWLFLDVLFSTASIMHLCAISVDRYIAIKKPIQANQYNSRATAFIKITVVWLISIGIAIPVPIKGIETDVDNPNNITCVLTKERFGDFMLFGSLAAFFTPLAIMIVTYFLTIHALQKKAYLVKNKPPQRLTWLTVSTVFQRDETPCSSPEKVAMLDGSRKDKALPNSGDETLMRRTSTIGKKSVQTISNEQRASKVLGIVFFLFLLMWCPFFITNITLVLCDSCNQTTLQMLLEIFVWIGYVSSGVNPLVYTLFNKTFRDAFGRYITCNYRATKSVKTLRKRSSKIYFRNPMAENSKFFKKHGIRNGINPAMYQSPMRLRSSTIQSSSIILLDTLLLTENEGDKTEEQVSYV
Sequence of D2 receptor (P14416 whole entry): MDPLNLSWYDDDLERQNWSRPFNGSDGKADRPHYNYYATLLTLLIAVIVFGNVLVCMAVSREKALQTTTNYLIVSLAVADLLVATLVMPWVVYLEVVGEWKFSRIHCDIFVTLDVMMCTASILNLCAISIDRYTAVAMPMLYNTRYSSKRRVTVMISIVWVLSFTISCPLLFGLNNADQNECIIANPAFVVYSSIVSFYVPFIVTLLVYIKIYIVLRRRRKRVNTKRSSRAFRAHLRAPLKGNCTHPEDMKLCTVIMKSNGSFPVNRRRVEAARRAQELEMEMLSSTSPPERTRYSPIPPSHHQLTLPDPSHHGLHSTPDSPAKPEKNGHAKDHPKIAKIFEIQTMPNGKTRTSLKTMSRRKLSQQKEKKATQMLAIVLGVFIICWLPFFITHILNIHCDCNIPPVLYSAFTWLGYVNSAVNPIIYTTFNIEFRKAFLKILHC
Sequence of D1 receptor (P21728 whole entry): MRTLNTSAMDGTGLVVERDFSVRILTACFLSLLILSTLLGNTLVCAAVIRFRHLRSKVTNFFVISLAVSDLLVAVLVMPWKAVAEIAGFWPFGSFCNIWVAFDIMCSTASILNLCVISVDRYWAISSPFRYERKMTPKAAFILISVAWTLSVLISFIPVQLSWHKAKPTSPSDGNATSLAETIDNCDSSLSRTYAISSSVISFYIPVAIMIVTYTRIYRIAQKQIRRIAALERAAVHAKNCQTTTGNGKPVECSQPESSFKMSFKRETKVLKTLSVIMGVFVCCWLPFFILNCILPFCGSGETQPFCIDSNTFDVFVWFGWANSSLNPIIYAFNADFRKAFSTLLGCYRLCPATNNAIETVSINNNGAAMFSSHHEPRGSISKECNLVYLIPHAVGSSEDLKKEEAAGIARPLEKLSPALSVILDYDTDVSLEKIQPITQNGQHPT

In general, microsomal CLint refers to the rate of metabolic loss divided by the concentration. A high value points to faster metabolism. In general, EC50 refers to the concentration giving half of the maximal effect. In general, Ki refers to a dissociation constant, usually derived from enzyme kinetics or from competition with a known ligand. For `CCN(CC)C(=O)[C@@H]1C=C2c3cccc4[nH]cc(c34)C[C@H]2N(CC2CC2)C1` [Compound 13, (6aR,9R)—N,N-diethyl-7-(cyclopropylmethyl)-4,6,6a,7,8,9-hexahydroindolo[4,3-fg]quinoline-9-carboxamide], the figures for the “t1/2” value in series [1], in series [4] and in series [5] were 21.1 min, 27.7 min and 3.7 min, respectively. Moreover, the figures for the microsomal CLint at 1 μM in series [1], in series [4] and in [5] were 65.7 µL/min/mg, 50 µL/min/mg and 376 µL/min/mg, respectively. Further, the EC50 amounted to 25.9 nM at 5-HT2A receptor [2]; 44.6 nM at Alpha1A receptor; 98.6 nM on 5-HT1B receptor; 182 nM on 5-HT2B receptor; 15.3 nM on 5-HT1A receptor. Moreover, at 5-HT2A receptor [3], the Ki was 2.23 nM.

By Emax is commonly meant the greatest response seen or fitted, relative to the assay's reference. For `CCN(CC)C(=O)[C@@H]1C=C2c3cccc4[nH]cc(c34)C[C@H]2N(C)C1` [LSD, lysergic acid diethylamide, reference compound], the “t1/2” value in series [1] came to 71.6 min; in [4], 60.2 min; in [5], 31.3 min. The microsomal CLint at 1 μM amounted to 19.4 µL/min/mg in series [1], 23 µL/min/mg in [4] and 44.2 µL/min/mg in [5]. Further, the EC50 worked out at 4.87 nM on D1 receptor, 91.1 nM at Alpha1A receptor, 2.06 nM on 5-HT1B receptor and 4.93 nM at D2 receptor. The same molecule displayed an Emax at 5-HT2A receptor [6] of less than 60%. At 5-HT2A receptor [6], the “agonist type in arrestin recruitment assay (in words)” value is reported as “partial agonists”.
